Where a SMILES comes first, the peptide text is derived from it. The star is where a group is joined. Cbz = O=C(OCc1ccccc1)*
What was measured:
20S and 26S proteasomes = settings: read-out: Ki (proteasomal inhibitor); cited from earlier work
DMD gene exon 45 = test: Exon 45 skipping in control myotubes transfected with PS221 in presence of pentoxifylline (RT-PCR); type: cell-based, human; settings: 250 nM PS221, 0 to 0.5 mg/ml pentoxifylline, RNA 24 hrs after transfection
Description: (§1) A., B. Differentiated muscle cell cultures (myotubes) derived from a healthy control individual were transfected with 250 nM PS188 ([5′ […] 3′; SEQ ID NO:10] an AON optimized to specifically skip exon 44) or 250 nM PS221 ([5′ […] 3′; SEQ ID NO: 60] an AON optimized to specifically skip exon 45) in the presence of 0 to 0.5 mg/ml pentoxifylline, using the transfection reagent polymer UNIFectylin (2.0 μl UNIFectylin per μg AON in 0.15M NaCl). UNIFectylin interacts electrostatically with nucleic acids, provided that the nucleic acid is negatively charged (such as 2′-O-methyl phosphorothioate AONs). Pentoxyfillin (Sigma Aldrich) was dissolved in water. Total RNA was isolated 24 hrs after transfection in RNA-Bee solution (Campro Scientific, The Netherlands) according to the manufacturer's instructions. For cDNA synthesis with reverse transcriptase (Roche Diagnostics, The Netherlands), 500 ng of RNA was used in a 20 μl reaction at 55° C. for 30 min, reverse primed with DMD gene-specific primers. First PCRs were performed with outer primer sets, for 20 cycles of 94° C. (40 sec), 60° C. (40 sec), and 72° C. (60 sec). One μl of this reaction (diluted 1:10) was then re-amplified using nested primer combinations in the exons directly flanking exon 44 or 45, with 30 cycles of 94° C. (40 sec), 60° C. (40 sec), and 72° C. (60 sec). PCR products were analysed on 2% agarose gels. Skipping efficiencies were determined by quantification of PCR products using the DNA 1000 LabChip® Kit and the Agilent 2100 bioanalyzer (Agilent Technologies, The Netherlands).

[1] = tested on: exon 23 of the dystrophin gene; test: Exon 23 skipping in mdx mice treated with PS49 with or without pentoxyfilline (RT-PCR); type: in vivo
Description: In a pre-clinical study in mdx mice (animal model for DMD) the effect of adjunct compound pentoxyfilline on AON-induced exon skipping was assessed. Mdx mice (C57Bl/10ScSn-mdx/J) were obtained from Charles River Laboratories (The Netherlands). These mice are dystrophin-deficient due to a nonsense mutation in exon 23. AON-induced exon 23 skipping is therapeutic in mdx mice by removing the nonsense mutation and correction of the open reading frame. Two mdx mice per group were injected subcutaneously with: Group 1) pentoxyfilline (50 mg/kg, wk 1-2), Group 2) mouse-specific antisense oligonucleotide PS49 designed to specifically induce exon 23 skipping (100 mg/kg, wk 2 (2 times), Group 3) pentoxyfilline (50 mg/kg, wk 1-2)+PS49 (100 mg/kg, wk 2 (2 times). PS49 (5′ […] 3′) has a full-length phosphorothioate backbone and 2′O-methyl modified ribose molecules.
All mice were sacrificed at 1 week post-last-injection. Different muscles groups, including quadriceps, tibialis anterior, triceps and heart muscles were isolated and frozen in liquid nitrogen-cooled 2-methylbutane. […] PCR products were analysed on 2% agarose gels. Skipping efficiencies were determined by quantification of PCR products using the DNA 1000 LabChip® Kit and the Agilent 2100 bioanalyzer (Agilent Technologies, The Netherlands).

DMD gene exon 44 = test: Exon 44 skipping in control myotubes transfected with PS188 in presence of pentoxifylline (RT-PCR); type: cell-based, human; settings: 250 nM PS188, 0 to 0.5 mg/ml pentoxifylline, RNA 24 hrs after transfection
Description: as §1

[2] = tested on: exon 23 of the dystrophin gene; test: Exon 23 skipping in mdx mice treated with PS49 with or without prednisolone (RT-PCR); type: in vivo
Description: Two mdx mice per group were injected subcutaneously with: Group 1) physiologic salt (wk 1-8), Group 2) prednisolone (1 mg/kg, wk 1-8), Group 3) mouse-specific antisense oligonucleotide PS49 designed to specifically induce exon 23 skipping (100 mg/kg, wk 4 (5 times), week 5-8 (2 times), Group 4) prednisolone (1 mg/kg, wk 1-8)+PS49 (100 mg/kg, wk 4 (5 times), week 5-8 (2 times). PS49 (5′ [sequence] 3′) has a full-length phosphorothioate backbone and 2′O-methyl modified ribose molecules.
All mice were sacrificed at 1 week post-last-injection. Different muscles groups, including quadriceps, tibialis anterior, and diaphragm muscles were isolated and frozen in liquid nitrogen-cooled 2-methylbutane. For RT-PCR analysis, the muscle samples were homogenized in the RNA-Bee solution (Campro Scientific, The Netherlands). Total RNA was isolated and purified according to the manufacturer's instructions. For cDNA synthesis with reverse transcriptase (Roche Diagnostics, The Netherlands), 300 ng of RNA was used in a 20 μl reaction at 55° C. for 30 min, reverse primed with mouse DMD gene-specific primers. First PCRs were performed with outer primer sets, for 20 cycles of 94° C. […] PCR products were analysed on 2% agarose gels. Skipping efficiencies were determined by quantification of PCR products using the DNA 1000 LabChip® Kit and the Agilent 2100 bioanalyzer (Agilent Technologies, The Netherlands).

dystrophin = settings: mdx mice; variability among animals; cited from earlier work
[3] = mdx mice, s.c., sacrificed 1 week post-last-injection

Compound: CC(C)C[C@@H](C=O)NC(=O)[C@H](CC(C)C)NC(=O)[C@H](CC(C)C)NC(=O)OCc1ccccc1 [MG-132, CBZ-leucyl-leucyl-leucinal] (Cbz-Leu-Leu-Leu-aldehyde)
- Ki (20S and 26S proteasomes): 4 nM

Compound: CC(=O)CCCCn1c(=O)c2c(ncn2C)n(C)c1=O [pentoxifylline]
- exon 45 skipping levels (DMD gene exon 45): enhances exon skipping levels
- exon 45 skipping levels (DMD gene exon 45; listed as pentoxyfilline): enhanced
- exon 23 skipping in muscles (RT-PCR) [1, 3]: No exon 23 skipping was observed
- exon 23 skipping levels, PS49 plus pentoxyfilline (group 3) compared to PS49 only (group 2) ([1]; quadriceps, tibialis anterior, triceps, heart, pentoxyfilline 50 mg/kg wk 1-2, PS49 100 mg/kg): enhances exon 23 skipping levels
- exon 44 skipping levels (DMD gene exon 44): enhances exon skipping levels
- exon 44 skipping levels (DMD gene exon 44; listed as pentoxyfilline): enhanced

Compound: C[C@]12C=CC(=O)C=C1CC[C@@H]1[C@@H]2[C@@H](O)C[C@@]2(C)[C@H]1CC[C@]2(O)C(=O)CO [prednisolone]
- exon 23 skipping in muscles (RT-PCR) [2, 3]: No exon 23 skipping was observed
- exon 23 skipping levels, PS49 plus prednisolone (group 4) compared to PS49 only (group 3) ([2]; quadriceps, tibialis anterior, diaphragm, prednisolone 1 mg/kg wk 1-8, PS49 100 mg/kg): enhances exon 23 skipping levels

Compound: PS188: 5′ UCAGCUUCUGUUAGCCACUG 3′; SEQ ID NO:10; an AON optimized to specifically skip exon 44 (chemistry not given here)
- exon 44 skipping levels (DMD gene exon 44): increasing levels

Compound: PS221: 5′ AUUCAAUGUUCUGACAACAGUUUGC 3′; SEQ ID NO: 60; an AON optimized to specifically skip exon 45 (chemistry not given here)
- exon 45 skipping levels (DMD gene exon 45): increasing levels

Compound: gentamicin
- novel dystrophin expression, of normal level (dystrophin): up to 20%
